From ChEMBL document CHEMBL6114978, “Rational design and synthesis of pyrazole derivatives as potential SARS-CoV-2 Mpro inhibitors: An integrated approach merging combinatorial chemistry, molecular docking, and deep learning” (Bioorg Med Chem, 2025)

What was measured:
Design in all cases: species or system Severe acute respiratory syndrome-related coronavirus
[1] = Inhibition of SARS-CoV Main protease
[2] = Inhibition of SARS-CoV Main protease assessed as inhibition constant
[3] = Inhibition of His-tagged SARS-CoV 3CLpro using Abz-SVTLQSG-Tyr(NO2)R as substrate by fluorometric assay

SMILES: CC(C)(C)c1ccc(N(C(=O)c2cnc[nH]2)[C@@H](C(=O)NC2CCCCC2)c2cccnc2)cc1
- IC50 [1]: 1600 nM

SMILES: Cc1cc(C(=O)N[C@@H](C)C(=O)N[C@H](C(=O)N[C@@H](CC(C)C)C(=O)N[C@H](/C=C/C(=O)OCc2ccccc2)C[C@@H]2CCNC2=O)C(C)(C)C)no1
- Ki [2]: 3300 nM

SMILES: CC(=O)N[C@H](CN[C@H](C(=O)N[C@@H](CC(C)C)C(=O)N[C@@H](C[C@@H]1CCNC1=O)C(=O)Cn1[nH]c(=O)c2c([N+](=O)[O-])cccc2c1=O)[C@@H](C)OCc1ccccc1)C(C)C
- IC50 [3]: 600 nM
